Tests used:
[1] = test system: H3K4me3 levels in MCF-7 cells; assay: Western blotting of H3K4me3 levels in bulk chromatin; type: cell-based, human; conditions: MCF7 bulk chromatin, 24 h
Description: Histone isolation was performed according to acid extraction of histones protocol of Shechter and colleagues. Histone concentration was determined by running 5 μL of samples and known concentrations of commercially available purified calf thymus histones (from Sigma Aldrich Cat. #000000010223565001) on a SDS-PAGE gel. The gel is stained with Coomassie blue G 250 (BIO-RAD Cat. #161-0786) for 1 hour at room temperature and then destained in distilled water. The gel image is acquired with ChemiDoc XRS+ Imaging System (Bio-Rad, Hercules, CA, USA) and the volumes of bands of the samples are compared to standard concentrations of calf thymus histone.
(§1) Proteins were resolved on a 12% (histones) or 5% (JARID1B) denaturing polyacrylamide gel, using either 4 μg of histone preparation or 40 μg of cell lysate. After electrophoresis, proteins were transferred on a nitrocellulose membrane (Protran™ […] NC, # 10600002, GE Healthcare (Amersham™), Chicago, IL, USA) via wet transfer method using a Bio-Rad tank. Transfer efficiency was verified via ponceau staining (#P7767, Sigma-Aldrich). Filters were blocked with either milk (#70166, Sigma-Aldrich) or bovine serum albumin (#A3069, Sigma-Aldrich) and then hybridized over night at 4 °C in gentle rotation with the following antibodies: rabbit anti-H3K4me3 (1:1000, #39915, Active Motif, RRID:AB_2687512); rabbit-anti-H3K27me3 (1:1000, #9733, Cell Signaling Technology, RRID:AB_2616029); rabbit-anti- H3K9pan-methylated (1:1000, #4473, RRID:AB_10544693); rabbit-anti-H3 ([…], Cat#1791, ABCAM, RRID:AB_302613); rabbit anti-H2AX (1:1000, Cat#7631, Cell Signaling Technology, RRID:AB_10860771), rabbit anti-Phospho-H2AX (1:1000, Cat#9718, Cell Signaling Technology, RRID:AB_2118009), rabbit anti-JARID1B (1:50, Cell Signaling Technology, Cat#3273 RRID: AB_1264191). Goat-anti-Rabbit Horseradish Peroxidase conjugated (1:10,000, #31460, Thermo Fisher Scientific, Waltham, MA, USA RRID:AB_228341) was used as secondary antibody for 1 hour hybridization at room temperature. Blots were scanned and analyzed with a ChemiDoc XRS+ Imaging System (Bio-Rad). The volumes of each band of protein was acquired using Bio-Rad’s ImageLab software by means of volume tools using global quantification. The signal for each protein was normalized to the housekeeping protein and ratios with average control values were determined. For histones as loading control was used either total histone H3 detected by a specific antibody or histone H1 levels by staining the upper part of the gel properly cut before protein transfer on nitrocellulose membrane.

MCF-7 cells [2] = assay: Flow-cytometry analysis of cell cycle distribution; type: cell-based, human; conditions: MCF-7, same range of concentrations as H3K4me3 test (not shown)
Description: Flow-cytometry analysis of DNA content was carried out using an EPICS xl flow-cytometer (Beckman-Coulter, Brea, CA, USA). DMSO and inhibitor treated MCF-7 cells were trypsinized, pelleted, washed with PBS and finally resuspended in PBS containing 0.1% Triton-X-100 (#A1388.1000, AppliChem, Darmstadt, Germany) and 40 μg/mL propidium iodide (#P-4170, Sigma). After 20 min incubation at 37 °C the samples were analyzed. 10,000 events were acquired for each sample. Acquired data were analyzed using the WinMDI software by Joe Trotter, available at http://facs.scripps.edu.

MCF-7 cells [3] = assay: CCK-8 viability assay after X-ray irradiation; type: cell-based, human; conditions: MCF-7 irradiated with 3 Gy, all concentrations tested, compared to DMSO control, CCK-8 48 h post irradiation
Description: The cytoxicity assay was performed with Cell Counting Kit-8 (#96992, Sigma-Aldrich) according to the manufacturer’s instructions. 100 µL of MCF-7 T47D or MDA-MB231 cell suspension (5000 cells/well) was dispensed in a 96-well plate. After 24 h, inhibitor or DMSO was added in growth medium and then cells were irradiated. 48 h post irradiation, 10 μL of CCK-8 solution was added to each well of the plate and incubated again for 1 h. Incubate the plate for 1–4 h in the incubator. The absorbance at 450 nm was read using a VICTOR2 1420 reader (Perkin Elmer Wallac, Waltham, MA, USA). The absorbance at 450 nm of each sample, which is proportional to the number of viable cells, was first normalized on the same value of absorbance of blank (a well with only growth medium). The absorbance of each dose of radiation (sham, 0.3, 1 and 3 Gy) was normalized to the corresponding DMSO control and then, for each concentration of inhibitors, these values were normalized to the corresponding sham control.

MCF-7 cells [4] = assay: Clonogenic assay after X-ray irradiation; type: cell-based, human; conditions: MCF-7, 0.03 μM, 3 and 10 Gy, compared to DMSO control
Description: One hour after treatment with inhibitors, cells were exposed to X-ray using a MLG 300/6-D apparatus (Gilardoni, Lecco, Italy) set to […] and 6 mA, in order to produce an equivalent absorbed dose of 1cGy/s. Afterwards, cells were harvested, counted and then diluted in inhibitor containing growth medium. Appropriate cell numbers were seeded in quadruplicate according to the doubling time of the cell line and to radiation dose. 24 h after this seeding, the medium with inhibitor was replaced with fresh DMEM and cells were then incubated for 14 days (enough time to allow at least six cell divisions). After this period of growth, cells were washed twice with PBS and then fixed and stained with a suitable volume of a solution made of 0.3% Methylene Blue and 80% Ethanol for 30 min at room temperature. After washing cells twice with ddH2O, plates were pictured with ChemiDoc XRS+ Imaging System (Bio-Rad) in colorimetric mode. Colonies were detected using Fiji software, with the “Find maxima” function setting a background noise threshold of 3000. Radiation-dose response curveS to X-ray for DMSO and inhibitor samples were calculated using surviving fraction. Plating efficiency and surviving fraction were calculated as follows:Plating efficiency = number of colonies counted/number of cells plated Surviving fraction = Plating efficiency/plating efficiency of shame sample

[5] = test system: γ-H2AX levels in MCF-7 cells; assay: Western blotting of H2AX phosphorylation after irradiation; type: cell-based, human; conditions: RS5033 10 μM, KDOAM-25 0.03 μM
Description: as §1

KDM5A-D = conditions: in vitro, toward KDM5 enzymes; ref Tumber et al. [49]; cited from earlier work
[6] = test system: panel of 55 receptors and enzymes; parameters: method as in PMID 28262558; conditions: cited from earlier work
[7] = test system: MM1S multiple myeloma cells; parameters: method as in PMID 28262558; conditions: cited from earlier work
KDM5D = KDM5D (Homo sapiens, UniProt Q9BY66); assay: Surface Plasmon Resonance (SPR), immobilized KDM5D; type: binding; conditions: KDM5D immobilized on COOH5 sensorchip, buffer HSP-1%D, analyte 6.25-100 μM
Description: Surface Plasmon Resonance (SPR) experiments were carried out using a SensiQ Pioneer system (ICx Nomadics, Stillwater, OK, USA). Immobilization of ligand (KDM5D) was carried out essentially as in Ilari et al.. The sensor chip (COOH5) was activated chemically by a 100 µL injection of a 1:1 mixture of N-ethyl-N′-(3-([…])carbodiimide (200 mM) and N-hydroxysuccinimide (50 mM) at a flow rate of 5 µL/min. KDM5D was immobilized on activated sensor chips via amine coupling. The immobilization was carried out in 20 mM sodium acetate at pH 4.5; the remaining unreacted groups were blocked by injecting 1 M ethanolamine hydrochloride (100 µL). The amount of immobilized KDM5D was detected by mass concentration-dependent changes in the refractive index on the sensor chip surface and corresponded to about 11,000 resonance units (RU); an empty flow cell was used as a reference. Analytes, i.e., inhibitors RS3152, RS3183, RS3195, RS4995 and RS5033 were dissolved in DMSO at a concentration of 10 mM and diluted in HSP buffer (10 mM Hepes pH 7.4, 150 mM NaCl + 0.005% surfactant P20) to yield 100 μM inhibitor concentration in HSP + 1% DMSO (HSP-1%D). The analytes were automatically diluted in HSP-1%D and injected on the sensorchip for 120 s at a constant flow (30 µL/min); analyte concentrations were: (1) 6.25 μM; (2) 12.5 μM; (3) 25 μM; (4) 50 μM; (5) 100 μM. The increase in RU relative to baseline indicates complex formation; the plateau region represents the steady-state phase of the interaction, whereas the decrease in RU after 120 s represents dissociation of analytes from immobilized KDM5 after injection of buffer HSP-1%D. The sensorgrams were analysed using the SensiQ Qdat 4.0 program and using simple Scatchard plots.

Sequence of KDM5D (Q9BY66 whole entry): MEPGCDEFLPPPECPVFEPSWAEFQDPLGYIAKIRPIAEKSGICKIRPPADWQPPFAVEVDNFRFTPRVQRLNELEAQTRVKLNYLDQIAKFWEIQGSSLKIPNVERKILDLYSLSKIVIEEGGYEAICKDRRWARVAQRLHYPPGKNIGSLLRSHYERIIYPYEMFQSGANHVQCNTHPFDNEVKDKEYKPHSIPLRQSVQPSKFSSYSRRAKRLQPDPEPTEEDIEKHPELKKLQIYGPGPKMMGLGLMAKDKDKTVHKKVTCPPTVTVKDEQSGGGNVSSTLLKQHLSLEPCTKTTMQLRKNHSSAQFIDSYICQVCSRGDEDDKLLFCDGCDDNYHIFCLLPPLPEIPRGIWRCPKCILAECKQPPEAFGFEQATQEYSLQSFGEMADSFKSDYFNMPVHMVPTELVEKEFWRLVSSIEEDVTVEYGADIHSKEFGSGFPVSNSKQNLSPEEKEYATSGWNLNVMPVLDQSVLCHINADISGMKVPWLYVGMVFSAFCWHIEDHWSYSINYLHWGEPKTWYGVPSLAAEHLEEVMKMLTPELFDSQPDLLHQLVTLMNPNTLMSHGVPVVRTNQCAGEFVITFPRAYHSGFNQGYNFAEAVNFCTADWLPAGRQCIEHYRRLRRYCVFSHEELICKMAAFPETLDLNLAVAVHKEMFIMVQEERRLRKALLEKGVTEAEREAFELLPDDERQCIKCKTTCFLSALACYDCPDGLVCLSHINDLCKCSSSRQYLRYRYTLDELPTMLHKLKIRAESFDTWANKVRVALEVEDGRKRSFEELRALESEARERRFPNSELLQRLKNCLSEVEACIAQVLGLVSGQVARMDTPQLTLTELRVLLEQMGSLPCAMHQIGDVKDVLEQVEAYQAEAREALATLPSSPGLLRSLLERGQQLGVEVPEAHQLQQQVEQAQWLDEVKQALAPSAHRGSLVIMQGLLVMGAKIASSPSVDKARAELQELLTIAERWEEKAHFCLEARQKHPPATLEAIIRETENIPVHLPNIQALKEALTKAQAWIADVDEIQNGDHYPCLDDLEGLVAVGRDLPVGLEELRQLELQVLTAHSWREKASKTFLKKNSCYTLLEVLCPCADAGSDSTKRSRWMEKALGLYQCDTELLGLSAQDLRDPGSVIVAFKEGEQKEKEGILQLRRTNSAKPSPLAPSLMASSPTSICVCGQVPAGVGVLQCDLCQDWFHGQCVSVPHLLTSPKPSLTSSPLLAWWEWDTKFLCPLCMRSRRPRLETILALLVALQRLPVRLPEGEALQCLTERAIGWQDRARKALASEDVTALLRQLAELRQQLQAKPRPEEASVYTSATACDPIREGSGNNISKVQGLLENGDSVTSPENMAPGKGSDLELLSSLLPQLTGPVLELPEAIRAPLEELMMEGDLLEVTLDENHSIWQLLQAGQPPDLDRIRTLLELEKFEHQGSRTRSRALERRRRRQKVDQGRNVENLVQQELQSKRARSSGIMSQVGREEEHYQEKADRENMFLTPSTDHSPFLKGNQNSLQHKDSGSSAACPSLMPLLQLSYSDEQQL

## CCN(CCN(C)C)C(=O)CNCc1cc(C(N)=O)ccn1 [KDOAM-25, reference compound]
[1]; 0.03–1 μM
  increase of H3K4 tri-methylation: around 1.5 fold
[1]; concentrations above 1 μM
  increase of H3K4 tri-methylation at higher concentrations: the effect is lost
MCF-7 cells [2]
  effect on cell cycle: does not show any significant effect
MCF-7 cells [3]
  reduction of viable cells: 20–35%
MCF-7 cells [4]
  proliferative capacity (clonogenic survival): slight but significant decrease
[5]; MCF-7, 6 Gy, 4-36 h
  ɤH2AX increase normalized to the amount of H2AX: not significant
[5]; MCF-7, sham-irradiated and irradiated (6 Gy) cells
  amount of ɤH2AX: increases
KDM5A-D
  IC50: < 0.1 µM
[6]
  off-target activity: no off-target activity
[7]
  proliferation of MM1S multiple myeloma cells: block proliferation

## COc1ccc(S(=O)(=O)Nc2cccc(C(=O)n3cccc3)c2)cc1 [RS3152]
KDM5D
  Kd: 62 ± 5 µM

## COc1ccc(S(=O)(=O)Nc2cccc(C(=O)O)c2)cc1 [RS3183]
KDM5D
  Kd: 150 ± 15 µM

## CCOC(=O)c1ccccc1C(=O)c1ccc(NS(=O)(=O)c2ccc(Br)cc2)cc1 [RS4995]
KDM5D
  Kd: 38 ± 3 µM

From PMC6540222, “Small Molecule Inhibitors of KDM5 Histone Demethylases Increase the Radiosensitivity of Breast Cancer Cells Overexpressing JARID1B” (Molecules, 2019)
